Data published in PubChem BioAssay AID1963962 (Molecular Pharmacology Branch, DTP, NCI, 2024).
pIC50: −log10 of the molar value.

Tested on: 967376-340-R-J2-PDC multicell spheroid viability
Test: Anticancer human tumor 967376-340-R-J2-PDC patient-derived colon adenocarcinoma cell line growth inhibition [PI3K]
Settings: for pIC50: curve of first compound; for viability, T/C: stronger effect = lower value; active means viability on the fitted dose curve at most 10% of control; inactive means the rest
Text: Combinatorial screen of targeted agents with the PI3K inhibitors inavolisib, alpelisib, duvelisib, and copanlisib in multi-cell type tumor spheroids
A high-throughput screen of multi-cell type tumor spheroids was designed to identify active combinations of targeted small molecules and PI3K pathway inhibitors. Complex spheroids include a stromal component modeled by human endothelial cells (HUVEC) and fibroblasts modeled by human mesenchymal stem cells (MSCs). The concentration ranges selected for each drug and investigational agent were based upon clinically achievable concentrations if the clinical Cmax of the agent was known.
Compounds. The drugs and investigational agents: inavolisib (NSC800729), alpelisib (NSC765974), duvelisib (NSC772469), copanlisib (NSC816437), ipatasertib (NSC767898), afuresertib (NSC778305), talazoparib (NSC767125), sapanisertib (NSC764658), selumetinib (NSC741078), tovorafenib (DAY101, NSC766906), vemurafenib (NSC761431), ravoxertinib (NSC781343), sotorasib (NSC818433), MRTX1133 (NSC 836407), abemaciclib (NSC 768073), palbociclib (NSC758247), venetoclax (NSC 766270), SY5609 (NSC837396), enzalutamide (NSC755605), and darolutamide (NSC825331), were obtained from the National Cancer Institute (NCI) Developmental Therapeutics Program Chemical Repository. The FDA-approved anticancer drug set is available from the NCI Developmental Therapeutics Program. […] The stock solutions were prepared in dimethyl sulfoxide (DMSO, Sigma-Aldrich, St. Louis, MO, cat. D2650) at 800-fold the tested concentration and stored at -70 degrees C prior to their use. All drugs and investigational agents were tested over a range starting from a high concentration at or near the clinical Cmax and decreasing in half-log increments. If the clinical Cmax for an agent had not been determined, the highest concentration tested was 10 microM.
Cell Culture. All cells were maintained in an incubator at 37 degrees C and 5% CO2 with 95% humidity. The PDC lines were cultured according to standard operating procedures established by the NCI PDMR (https://pdmr.cancer.gov/sops/default.htm). All PDCs were thawed and cultured in Matrigel-coated flasks prepared with a working solution of 1X Ham's F-12 nutrient mix, without supplementation (Invitrogen, Waltham, MA, cat. 11765054), 100 U/mL penicillin-streptomycin (Invitrogen, cat. 15140122), and 2.5% Matrigel (Corning Inc., Corning, NY, cat. 354248) for the first three passages. The 354836-022-R-J1-PDC, 475296-252-R-J1-PDC, and 997726-040-R-J2-PDC lines were cultured in 6A media, which includes advanced DMEM/F-12 (Thermo Fisher Scientific, cat. 12634028), 10 mM HEPES (Thermo Fisher Scientific, cat. 15630080), 1X GlutaMAX supplement (Thermo Fisher Scientific, cat. 35050061), 0.1 mg/mL primocin (InvivoGen, San Diego, CA, cat. ant-pm-2), 10% defined fetal bovine serum, heat inactivated (HyClone Laboratories Inc., Logan, UT, cat. SH30070.03HI), 50% L-WRN conditioned media (ATCC, cat. CRL-3276), 1.25 mM N-Acetyl-L-cysteine (Sigma-Aldrich, cat. A9165), 10 mM nicotinamide (Sigma-Aldrich, cat. N0636), 1X B-27 supplement (Thermo Fisher Scientific, cat. 17504044), 1X N-2 supplement (Thermo Fisher Scientific, cat. 17502048), and 10 microM Y-27632 dihydrochloride (Tocris Bioscience, Bristol, United Kingdom, cat. 1254). The 624824-186-R-J2-PDC line was cultured in 6C/Colon 1B media, which includes all 6A media components plus 50 ng/mL human EGF recombinant protein (Thermo Fisher Scientific, cat. PHG0311). […]

[1] = second compound 0.0316 µM, first compound 0.0316 µM
[2] = second compound 0.0316 µM, first compound 0.1 µM
[3] = second compound 0.1 µM, first compound 0.0316 µM
[4] = second compound 0.1 µM, first compound 0.1 µM
[5] = second compound 0.316 µM, first compound 0.0316 µM
[6] = second compound 0.316 µM, first compound 0.1 µM
[7] = second compound 1 µM, first compound 0.0316 µM
[8] = second compound 1 µM, first compound 0.1 µM
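Further: spheroids exposed to agents for 7 days before read-out.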
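Wherever viability, T/C is given: luminescence used as surrogate of cell viability.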

CC(C)n1nc(-c2ccc3oc(N)nc3c2)c2c(N)ncnc21 + Cc1nc(NC(=O)N2CCCC2C(N)=O)sc1-c1ccnc(C(C)(C)C(F)(F)F)c1
inactive: viability, T/C (second compound 0.0316 µM, first compound 0.000316 µM) 90.8% | viability, T/C (second compound 0.0316 µM, first compound 0.001 µM) 108% | viability, T/C (second compound 0.0316 µM, first compound 0.00316 µM) 96.5% | viability, T/C (second compound 0.0316 µM, first compound 0.01 µM) 109% | viability, T/C [1] 70.5% | viability, T/C [2] 53.4% | viability, T/C (second compound 0.1 µM, first compound 0.000316 µM) 84.1% | viability, T/C (second compound 0.1 µM, first compound 0.001 µM) 69.3% | viability, T/C (second compound 0.1 µM, first compound 0.00316 µM) 88.7% | viability, T/C (second compound 0.1 µM, first compound 0.01 µM) 73% | viability, T/C [3] 70.8% | viability, T/C [4] 48.2% | viability, T/C (second compound 0.316 µM, first compound 0.000316 µM) 67.5% | viability, T/C (second compound 0.316 µM, first compound 0.001 µM) 79.3% | viability, T/C (second compound 0.316 µM, first compound 0.00316 µM) 80.4% | viability, T/C (second compound 0.316 µM, first compound 0.01 µM) 72.3% | viability, T/C [5] 58.7% | viability, T/C [6] 46.2% | viability, T/C (second compound 1 µM, first compound 0.000316 µM) 65.4% | viability, T/C (second compound 1 µM, first compound 0.001 µM) 64.5% | viability, T/C (second compound 1 µM, first compound 0.00316 µM) 59.3% | viability, T/C (second compound 1 µM, first compound 0.01 µM) 59.7% | viability, T/C [7] 66% | viability, T/C [8] 36.2% | viability, T/C (second compound 3.16 µM, first compound 0.000316 µM) 54.6% | viability, T/C (second compound 3.16 µM, first compound 0.001 µM) 58.2% | viability, T/C (second compound 3.16 µM, first compound 0.00316 µM) 62.3% | viability, T/C (second compound 3.16 µM, first compound 0.01 µM) 53.7% | viability, T/C (second compound 3.16 µM, first compound 0.0316 µM) 46.7% | viability, T/C (second compound 3.16 µM, first compound 0.1 µM) 32.2% | viability, T/C (second compound 10 µM, first compound 0.000316 µM) 47.8% | viability, T/C (second compound 10 µM, first compound 0.001 µM) 54.2% | viability, T/C (second compound 10 µM, first compound 0.00316 µM) 51.6% | viability, T/C (second compound 10 µM, first compound 0.01 µM) 48.9% | viability, T/C (second compound 10 µM, first compound 0.0316 µM) 41.3% | viability, T/C (second compound 10 µM, first compound 0.1 µM) 34.5%
7.15: pIC50 (second compound 0.316 µM)
< 7.00: pIC50 (second compound 0.0316 µM)
7.66: pIC50 (second compound 3.16 µM)
8.23: pIC50 (second compound 10 µM)
7.04: pIC50 (second compound 0.1 µM)
7.26: pIC50 (second compound 1 µM)

CC(Cn1ccc(-c2ccc(C#N)c(Cl)c2)n1)NC(=O)c1cc(C(C)O)[nH]n1 (centres undefined) + CC(Nc1ccc2c(c1)OCCn1cc(N3C(=O)OCC3C(F)F)nc1-2)C(N)=O
< 5.00: pIC50 (second compound 0.00316 µM) | pIC50 (second compound 0.01 µM) | pIC50 (second compound 0.0316 µM) | pIC50 (second compound 0.1 µM) | pIC50 (second compound 0.316 µM) | pIC50 (second compound 1 µM)
inactive: viability, T/C (second compound 0.00316 µM, first compound 0.0316 µM) 109% | viability, T/C (second compound 0.00316 µM, first compound 0.1 µM) 112% | viability, T/C (second compound 0.00316 µM, first compound 0.316 µM) 126% | viability, T/C (second compound 0.00316 µM, first compound 1 µM) 93.5% | viability, T/C (second compound 0.00316 µM, first compound 3.16 µM) 125% | viability, T/C (second compound 0.00316 µM, first compound 10 µM) 105% | viability, T/C (second compound 0.01 µM, first compound 0.0316 µM) 115% | viability, T/C (second compound 0.01 µM, first compound 0.1 µM) 78.3% | viability, T/C (second compound 0.01 µM, first compound 0.316 µM) 126% | viability, T/C (second compound 0.01 µM, first compound 1 µM) 101% | viability, T/C (second compound 0.01 µM, first compound 3.16 µM) 102% | viability, T/C (second compound 0.01 µM, first compound 10 µM) 117% | viability, T/C [1] 82.6% | viability, T/C [2] 104% | viability, T/C (second compound 0.0316 µM, first compound 0.316 µM) 101% | viability, T/C (second compound 0.0316 µM, first compound 1 µM) 97.1% | viability, T/C (second compound 0.0316 µM, first compound 3.16 µM) 93.7% | viability, T/C (second compound 0.0316 µM, first compound 10 µM) 84.8% | viability, T/C [3] 84.5% | viability, T/C [4] 74.1% | viability, T/C (second compound 0.1 µM, first compound 0.316 µM) 75% | viability, T/C (second compound 0.1 µM, first compound 1 µM) 83.9% | viability, T/C (second compound 0.1 µM, first compound 3.16 µM) 85.2% | viability, T/C (second compound 0.1 µM, first compound 10 µM) 67.4% | viability, T/C [5] 75.7% | viability, T/C [6] 72.3% | viability, T/C (second compound 0.316 µM, first compound 0.316 µM) 76.4% | viability, T/C (second compound 0.316 µM, first compound 1 µM) 62.4% | viability, T/C (second compound 0.316 µM, first compound 3.16 µM) 69.4% | viability, T/C (second compound 0.316 µM, first compound 10 µM) 78.2% | viability, T/C [7] 59.8% | viability, T/C [8] 54% | viability, T/C (second compound 1 µM, first compound 0.316 µM) 66.7% | viability, T/C (second compound 1 µM, first compound 1 µM) 51% | viability, T/C (second compound 1 µM, first compound 3.16 µM) 61.2% | viability, T/C (second compound 1 µM, first compound 10 µM) 60.2%
